Reference: paper PMC8318231, “Rate-of-Kill (RoK) assays to triage large compound sets for Chagas disease drug discovery: Application to GSK Chagas Box” (PLoS Neglected Tropical Diseases, 2021)

Legend:
[1] = tested on: TcCYP51; settings: formerly reported; cited from earlier work
[2] = tested on: T. cruzi Tulahuen trypomastigotes; assay: T. cruzi trypomastigote assay (Cell Titer-Glo viability, ATP luminescence); assay type: cell-based, Trypanosoma cruzi; settings: for Trypomastigotes pIC50 48 hours: 48 hours incubation; for Trypomastigotes pIC50 48 hours / Trypomastigotes pIC50 72 hours: pIC50 = -log10 IC50 in molar units; for Trypomastigotes pIC50 72 hours: 72 hours incubation; for 48 pIC50 / 72 pIC50: trypomastigote assay; for 48 pIC50: 48 h; for 72 pIC50: 72 h
Procedure: T. cruzi Tulahuen trypomastigotes obtained from the supernatants of LLC-MK2 infected cultures in a 225 cm^2 T-Flasks harvested between days 5 and 8 of infection. Trypomastigotes (5 × 10^4 per well) in 50 μl of DMEM/ 2% FBS were dispensed into white 384 plates (Greiner) pre-stamped with 250 nl compound a single-shot final concentration of 5 μM, or in dose response. […] Cell Titer-Glo cell viability solution (Promega) was added to each well (50 μL) incubated at room temperature for 10 min and luminescence read by Envision plate reader (Perkin Elmer). This assay quantifies the amount of ATP present which is directly proportional to the number of metabolically active cells. All data were normalised (100% effect control for no cells and 0% effect control for DMSO). This assay was adapted from MacLean et al., 2018 [22].

## COc1ccccc1C=CCN1C[C@H]2CCC[C@@H](C1)C2(O)c1cccnc1 (stereo partly drawn) [TCMDC-143309]
[1]
  CYP51 pIC50: 6.9
[2]
  Trypomastigotes pIC50 48 hours: < 4.3
  Trypomastigotes pIC50 72 hours: 4.5

## COc1ccc(CN2CCCCC2c2nc(-c3cccnc3)no2)cc1 (stereo not drawn) [TCMDC-143467]
[1]
  CYP51 pIC50: 6.7
[2]
  Trypomastigotes pIC50 48 hours: < 4.3
  Trypomastigotes pIC50 72 hours: < 4.3
[2]; figure 1A
  48 pIC50: < 4.3
  72 pIC50: < 4.3
[2]; figure 1B
  72 pIC50: < 4.3

## CN(C)c1ccc(-c2cc3nccnc3c(OC[C@H]3CCCNC3)n2)cn1.Cl [TCMDC-143408]
[1]
  CYP51 pIC50: < 4
[2]
  Trypomastigotes pIC50 48 hours: 4.5
  Trypomastigotes pIC50 72 hours: 5.2

## CC1(C)CCC(=Cc2ccc(Cl)cc2)CC1(O)Cn1ccnc1 (stereo not drawn) [TCMDC-125222]
[1]
  CYP51 pIC50: 7.3
[2]
  Trypomastigotes pIC50 48 hours: 5.1
  Trypomastigotes pIC50 72 hours: 4.8

## c1cc(-c2ncc(-c3ccn[nH]3)s2)ccn1 [TCMDC-143461]
[1]
  CYP51 pIC50: 7.4
[2]
  Trypomastigotes pIC50 48 hours: < 4.3
  Trypomastigotes pIC50 72 hours: < 4.3
[2]; figure 1A
  48 pIC50: < 4.3
  72 pIC50: < 4.3
[2]; figure 1B
  72 pIC50: < 4.3

## C=CCOCC1Cn2nc([N+](=O)[O-])nc2O1 (stereo not drawn) [TCMDC-143149]
[1]
  CYP51 pIC50: < 4
[2]
  Trypomastigotes pIC50 48 hours: < 4.3
  Trypomastigotes pIC50 72 hours: < 4.3
[2]; figure 1A
  48 pIC50: < 4.3
  72 pIC50: < 4.3
[2]; figure 1B
  72 pIC50: < 4.3

## N#Cc1ccc(S(=O)(=O)N2CCN(Cc3cccc(-c4ccncc4)c3)CC2)cc1 [TCMDC-143620]
[1]
  CYP51 pIC50: 7.1
[2]
  Trypomastigotes pIC50 48 hours: 4.4
  Trypomastigotes pIC50 72 hours: < 4.3

## O=C(NC(c1ccc(Cl)cc1)c1cnccn1)C1CCN(C(=O)Nc2cccc(C(F)(F)F)c2)CC1 (stereo not drawn) [TCMDC-143561]
[1]
  CYP51 pIC50: 6.9
[2]
  Trypomastigotes pIC50 48 hours: < 4.3
  Trypomastigotes pIC50 72 hours: < 4.3
[2]; figure 1A
  48 pIC50: < 4.3
  72 pIC50: < 4.3
[2]; figure 1B
  72 pIC50: < 4.3

## CC(Cn1ccnc1)NC(=O)COc1ccc(Cl)c(Cl)c1 (stereo not drawn) [TCMDC-143479]
[1]
  CYP51 pIC50: 7.2
[2]
  Trypomastigotes pIC50 48 hours: < 4.3
  Trypomastigotes pIC50 72 hours: < 4.3
[2]; figure 1A
  48 pIC50: < 4.3
  72 pIC50: < 4.3
[2]; figure 1B
  72 pIC50: < 4.3

## CC(C(=O)Nc1ccc(Br)cc1)N1CCN(c2ccc([N+](=O)[O-])cc2)CC1 (stereo not drawn) [TCMDC-143545]
[1]
  CYP51 pIC50: 4.4
[2]
  Trypomastigotes pIC50 48 hours: < 4.3
  Trypomastigotes pIC50 72 hours: < 4.3
[2]; figure 1A
  48 pIC50: < 4.3
  72 pIC50: < 4.3
[2]; figure 1B
  72 pIC50: < 4.3

## CN(Cc1cccnc1)Cc1ccc(N2CCN(C(=O)C3(c4ccc(Cl)cc4)CC3)CC2)nc1 [TCMDC-143247]
[1]
  CYP51 pIC50: 6.8
[2]
  Trypomastigotes pIC50 48 hours: 5.1
  Trypomastigotes pIC50 72 hours: 4.4

## O=c1ccn(-c2ccc([N+](=O)[O-])cc2Cl)c2ccc(F)cc12 [TCMDC-143520]
[1]
  CYP51 pIC50: 4.8
[2]
  Trypomastigotes pIC50 48 hours: < 4.3
  Trypomastigotes pIC50 72 hours: < 4.3
[2]; figure 1A
  48 pIC50: < 4.3
  72 pIC50: < 4.3
[2]; figure 1B
  72 pIC50: < 4.3

## COc1ccc([N+](=O)[O-])cc1NC(=O)Nc1cccc(Cl)c1 [TCMDC-143528]
[1]
  CYP51 pIC50: < 4
[2]
  Trypomastigotes pIC50 48 hours: 5.6
  Trypomastigotes pIC50 72 hours: < 4.3
